Test results published in the NIST ThermoML archive (doi:10.1021/je200757a).
± gives the expanded uncertainty stated by the source.

Experiments:
[1] = refractive index (Na D-line) (dimensionless); xn = mol fraction of the nth substance listed; details: 101 kPa, Liquid
[2] = xn = mol fraction of the nth substance listed; details: for viscosity / mass density: 101 kPa, Liquid; for viscosity: Capillary tube (Ostwald / Ubbelohde) method; for mass density: Vibrating tube method

C1C[C@@H]2[C@H]3CC[C@H](C3)[C@@H]2C1 [exo-tetrahydrodicyclopentadiene] + CCCCCCCCCCCCC
Details | mass density, [2] [kg/m3] | refractive index, [1] | surface tension liquid-gas, [2] [mN/m] | viscosity, [2] [mPa·s]
293.15 K, x2 = 0 | 935.3 ± 0.8 | 1.4877 ± 0.0013 | 31.86 ± 0.47 | 3.077 ± 0.035
293.15 K, x2 = 0.0757 | 913.9 ± 0.7 | 1.4795 ± 0.0013 | 30.4 ± 0.45 | 2.88 ± 0.032
293.15 K, x2 = 0.1546 | 893.5 ± 0.6 | 1.4726 ± 0.0013 | 29.63 ± 0.43 | 2.703 ± 0.029
293.15 K, x2 = 0.2392 | 873.7 ± 0.6 | 1.4662 ± 0.0013 | 28.55 ± 0.41 | 2.552 ± 0.027
293.15 K, x2 = 0.3284 | 854.6 ± 0.5 | 1.4586 ± 0.0013 | 28.03 ± 0.4 | 2.419 ± 0.024
293.15 K, x2 = 0.4236 | 836.3 ± 0.4 | 1.4528 ± 0.0013 | 27.19 ± 0.39 | 2.302 ± 0.022
293.15 K, x2 = 0.5258 | 818.7 ± 0.4 | 1.4468 ± 0.0013 | 26.68 ± 0.38 | 2.198 ± 0.021
293.15 K, x2 = 0.632 | 802.3 ± 0.4 | 1.4407 ± 0.0013 | 25.95 ± 0.37 | 2.108 ± 0.019
293.15 K, x2 = 0.7477 | 786.3 ± 0.3 | 1.4349 ± 0.0013 | 25.54 ± 0.36 | 2.028 ± 0.017
293.15 K, x2 = 0.8665 | 771.5 ± 0.3 | 1.4306 ± 0.0013 | 25.19 ± 0.35 | 1.963 ± 0.016
298.15 K, x2 = 0 | 931.4 ± 0.8 | – | – | 2.784 ± 0.032
298.15 K, x2 = 0.0757 | 910 ± 0.7 | – | – | 2.609 ± 0.029
298.15 K, x2 = 0.1546 | 889.7 ± 0.6 | – | – | 2.448 ± 0.027
298.15 K, x2 = 0.2392 | 869.9 ± 0.6 | – | – | 2.311 ± 0.024
298.15 K, x2 = 0.3284 | 850.9 ± 0.5 | – | – | 2.189 ± 0.022
298.15 K, x2 = 0.4236 | 832.6 ± 0.4 | – | – | 2.082 ± 0.02
298.15 K, x2 = 0.5258 | 815 ± 0.4 | – | – | 1.992 ± 0.019
298.15 K, x2 = 0.632 | 798.7 ± 0.4 | – | – | 1.913 ± 0.017
298.15 K, x2 = 0.7477 | 782.7 ± 0.3 | – | – | 1.842 ± 0.016
298.15 K, x2 = 0.8665 | 767.9 ± 0.3 | – | – | 1.789 ± 0.015
303.15 K, x2 = 0 | 927.5 ± 0.8 | 1.4832 ± 0.0013 | 31.09 ± 0.46 | 2.525 ± 0.029
303.15 K, x2 = 0.0757 | 906.1 ± 0.7 | 1.4743 ± 0.0013 | 29.94 ± 0.44 | 2.37 ± 0.026
303.15 K, x2 = 0.1546 | 885.9 ± 0.6 | 1.4683 ± 0.0013 | 28.98 ± 0.43 | 2.233 ± 0.024
303.15 K, x2 = 0.2392 | 866.1 ± 0.6 | 1.4614 ± 0.0013 | 28.38 ± 0.41 | 2.112 ± 0.022
303.15 K, x2 = 0.3284 | 847.1 ± 0.5 | 1.4541 ± 0.0013 | 27.21 ± 0.4 | 2 ± 0.02
303.15 K, x2 = 0.4236 | 828.9 ± 0.4 | 1.4483 ± 0.0013 | 26.74 ± 0.39 | 1.904 ± 0.019
303.15 K, x2 = 0.5258 | 811.3 ± 0.4 | 1.442 ± 0.0013 | 25.72 ± 0.37 | 1.822 ± 0.017
303.15 K, x2 = 0.632 | 795 ± 0.4 | 1.4357 ± 0.0013 | 25.38 ± 0.36 | 1.748 ± 0.016
303.15 K, x2 = 0.7477 | 779 ± 0.3 | 1.4305 ± 0.0013 | 24.83 ± 0.35 | 1.689 ± 0.014
303.15 K, x2 = 0.8665 | 764.3 ± 0.3 | 1.4258 ± 0.0013 | 24.5 ± 0.35 | 1.631 ± 0.013
313.15 K, x2 = 0 | 919.6 ± 0.7 | – | – | 2.112 ± 0.024
313.15 K, x2 = 0.0757 | 898.4 ± 0.7 | – | – | 1.975 ± 0.022
313.15 K, x2 = 0.1546 | 878.2 ± 0.6 | – | – | 1.86 ± 0.02
313.15 K, x2 = 0.2392 | 858.4 ± 0.5 | – | – | 1.759 ± 0.019
313.15 K, x2 = 0.3284 | 839.5 ± 0.5 | – | – | 1.669 ± 0.017
313.15 K, x2 = 0.4236 | 821.4 ± 0.4 | – | – | 1.587 ± 0.016
313.15 K, x2 = 0.5258 | 803.9 ± 0.4 | – | – | 1.521 ± 0.014
313.15 K, x2 = 0.632 | 787.7 ± 0.4 | – | – | 1.466 ± 0.013
313.15 K, x2 = 0.7477 | 771.8 ± 0.3 | – | – | 1.416 ± 0.012
313.15 K, x2 = 0.8665 | 757 ± 0.3 | – | – | 1.369 ± 0.011
